According to paper PMC5045383 (Oncotarget, 2016):

What was measured:
MOLM-14 (FLT3-ITD/wt) = assay: Cell proliferation assay (CellTiter-Glo); type: cell-based, human
Procedure: (§1) The human AML cell lines MV4-11, U937, OCI-AML-3 were purchased from the American Type Culture Collection (ATCC) (Manassas, VA, USA). The FLT3-ITD-expressing lines, MOLM-13, MOLM-14, were provided by Dr. Scott Armstrong, Dana Farber Cancer Institute (DFCI), Boston, MA. The wt FLT3-expressing AML line, NB4 (KRAS A18D), was obtained from Dr. Gary Gilliland. […] MV4-11 was cultured in IDMEM media (Corning, USA) with 10% FBS and supplemented with 2% L-glutamine and 1% penicillin/streptomycin. OCI-AML-3 was cultured in α-MEM media (Corning, USA) with 10% FBS and supplemented with 2% L-glutamine and 1% penicillin/streptomycin. All cell lines were maintained in culture media at 37°C with 5% CO2.
(§2) Cells were grown in 96-well culture plates (3000/well). […] Cell proliferation was determined after 72 hours drug treatment. […] Cell viability was measured with the CellTiter–Glo assay (Promega, USA), according to the manufacturer's instructions, and luminescence was measured in a multi-label reader (Envision, PerkinElmer, USA). […] GI50 values were calculated using Prism 5.0 (GraphPad Software, San Diego, CA).

MV4-11 (FLT3-ITD) = assay: Cell proliferation assay (CellTiter-Glo); type: cell-based, human
Procedure: as §1, §2

OCI-AML-3 (FLT3-wt) = assay: Cell proliferation assay (CellTiter-Glo); type: cell-based, human; details: 72 hours
Procedure: as §1, §2

NB4 (FLT3-wt) = assay: Cell proliferation assay (CellTiter-Glo); type: cell-based, human; details: 72 hours
Procedure: as §1, §2

U937 (FLT3-wt) = assay: Cell proliferation assay (CellTiter-Glo); type: cell-based, human; details: 72 hours
Procedure: as §1, §2

MOLM-13 (FLT3-ITD/wt) = assay: Cell proliferation assay (CellTiter-Glo); type: cell-based, human
Procedure: as §1, §2

[1] = test system: FLT3-ITD mediated signaling in MOLM14 and MV4-11 cell lines; assay: Signaling pathway effect examination (immunoblot); type: cell-based, human; details: intact FLT3-ITD-positive cell lines, 4 hours
From the text: Cells were then washed in PBS and lysed in cell lysis buffer. FLT3, Phospho-FLT3 (Tyr589/591), AKT, Phospho-AKT Ser473, Phospho-AKT Thr308, GSK-3β, Phospho-GSK-3β (Ser9), Phospho-FoxO1 (Thr24), FoxO1, PRAS40, Phospho-PRAS40 (Thr246), STAT5, Phospho-STAT5 (Tyr694), NF-ΚB-P65, Phospho-NF-ΚB-P65 (Ser536), P70S6K, Phospho-P70S6K Thr389, 4EBP1, Phospho-4EBP1 (Thr37/46), ERK, Phospho-p44/42MAPK (Erk1/2) (Thr202/Tyr204), C-Myc and GAPDH antibodies (Cell Signaling Technology) were used for immunoblotting.

BaF3 = assay: Anti-proliferation, parental BaF3 cells; type: cell-based
Procedure: Cells were grown in 96-well culture plates (3000/well). […] Cell proliferation was determined after 72 hours drug treatment. […] Cell viability was measured with the CellTiter–Glo assay (Promega, USA), according to the manufacturer's instructions, and luminescence was measured in a multi-label reader (Envision, PerkinElmer, USA). Data were normalized to control groups (DMSO) and represented by the mean of three independent measurements with standard error < 20%. GI50 values were calculated using Prism 5.0 (GraphPad Software, San Diego, CA).
Retroviral constructs for BaF3-FLT3 mutants were made based on the pMSCVpuro (Clontech) backbone. For TEL-FLT3 vector, the first 1 kb of human TEL gene with an artificial myristoylation sequence ([…]) was cloned into pMSCVpuro retroviral vector, followed by a 3xFLAG tag sequence and a stop codon. Then the kinase domain coding sequence of FLT3 was inserted in-frame between TEL and 3× FLAG sequences. For full-length expression vectors, the coding sequences of FLT3 variants were directly cloned in pMSCVpuro vector with a 3X FLAG tag at the C-terminal end. All mutagenesis studies were performed using the QuikChange Site-Directed Mutagenesis Kit (Stratagene) following the manufacturer's instructions. […]

`Cc1[nH]nc2ccc(-c3cncc(OC[C@@H](N)Cc4ccccc4)c3)cc12` [A674563] showed a GI50 (MOLM-14 (FLT3-ITD/wt); MOLM-14 (FLT3-ITD/wt), 72 hours, Table 1) of 180 nM, a GI50 (MOLM-14 (FLT3-ITD/wt); MOLM-14+FL(1 ng/mL)) of 210 nM and a GI50 (MOLM-14 (FLT3-ITD/wt); MOLM-14+FL(5 ng/mL)) of 190 nM. It also gave a GI50 (MOLM-14 (FLT3-ITD/wt); MOLM-14+FL(10 ng/mL)) of 180 nM, a GI50 (MOLM-14 (FLT3-ITD/wt); MOLM-14, no FLT3 ligand, Table 3) of 180 nM and a GI50 (MV4-11 (FLT3-ITD); MV4-11 (FLT3-ITD), 72 hours, Table 1) of 75 nM. It also gave a GI50 (MV4-11 (FLT3-ITD); MV4-11+FL(10 ng/mL)) of 78 nM, a GI50 (MV4-11 (FLT3-ITD); MV4-11, no FLT3 ligand, Table 3) of 75 nM and a GI50 (OCI-AML-3 (FLT3-wt)) of 670 nM. It also gave a GI50 (NB4 (FLT3-wt)) of 480 nM, a GI50 (U937 (FLT3-wt)) of 520 nM and a GI50 (MOLM-13 (FLT3-ITD/wt); MOLM-13 (FLT3-ITD/wt), 72 hours, Table 1) of 60 nM. The GI50 (MOLM-13 (FLT3-ITD/wt); MOLM-13+FL(1 ng/mL)) was 61 nM, the GI50 (MOLM-13 (FLT3-ITD/wt); MOLM-13+FL(5 ng/mL)) was 58 nM and the GI50 (MOLM-13 (FLT3-ITD/wt); MOLM-13+FL(10 ng/mL)) was 59 nM. For the same compound, the GI50 (MOLM-13 (FLT3-ITD/wt); MOLM-13, no FLT3 ligand, Table 3) was 60 nM, the “concentration from which auto-phosphorylation of FLT3-ITD at Y589/591 is affected” value [1] was at least 5 µM and the “concentration from which phosphorylation of STAT5 and expression of c-MYC are inhibited” value [1] was at least 0.5 µM. It also gave a GI50 (BaF3) of 1600 nM.
